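Cultured in 96-well plates, cells were exposed to test compound for 48 hours across five concentrations. GI50 is the concentration that inhibits growth by half. Definition used: TGI = concentration required for complete inhibition of growth.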
Columns and labels:
Assay in all cases: DTP human tumour cell line panel, 48 h
[1] = system: CAKI-1 renal
[2] = system: SK-OV-3 ovarian
[3] = system: MOLT-4 leukemia
[4] = system: SK-MEL-2 melanoma
[5] = system: HL-60(TB) leukemia
[6] = system: A498 renal
[7] = system: OVCAR-3 ovarian
[8] = system: 786-0 renal
[9] = system: UACC-257 melanoma
[10] = system: COLO 205 colon

SMILES | GI50 [1] [µM] | TGI [1] [µM] | GI50 [2] [µM] | TGI [2] [µM] | GI50 [3] [µM] | TGI [3] [µM] | GI50 [4] [µM] | TGI [4] [µM] | GI50 [5] [µM] | GI50 [6] [µM] | TGI [6] [µM] | GI50 [7] [µM] | TGI [7] [µM] | GI50 [8] [µM] | TGI [8] [µM] | GI50 [9] [µM] | TGI [9] [µM] | GI50 [10] [µM] | TGI [10] [µM] | TGI [5] [µM]
NS(=O)(=O)OCC1OC(n2cnc3cncnc32)C(O)C1O (stereo unspecified) | 0.0181 | 0.0463 | 0.0343 | 0.137 | 0.0209 | 2.42 | 0.0351 | 0.133 | 0.0556 | 0.0216 | 0.0821 | 0.035 | 0.297 | 0.0228 | 0.0693 | 0.0431 | 0.244 | 0.0291 | 0.0847 | –
O=[N+]([O-])c1ccc(C2CC(c3ccccc3Cl)=Nc3ccccc3S2)cc1 (stereo unspecified) | – | > 73.5 | – | > 85.3 | – | 5.37 | – | 24.5 | – | – | 17.4 | – | 34.2 | – | 12.3 | – | 35.5 | – | > 57.6 | 6.36
COc1ccc(C(=O)Nc2ncc(Cc3cccc(Cl)c3)s2)cc1OC | 0.309 | > 100 | 3.59 | > 100 | 0.374 | > 100 | 0.557 | > 100 | 0.325 | 0.211 | 1.89 | 0.368 | 9.71 | 1.33 | > 100 | 0.566 | > 100 | 0.222 | > 100 | > 71
CCOC(=O)c1ccccc1OC(=O)NNc1ccccc1 | 0.377 | > 100 | > 79.9 | > 100 | 0.465 | > 100 | – | > 29.3 | 0.365 | > 68 | > 100 | 16.3 | > 100 | 1.18 | > 100 | 5.61 | > 100 | 2.45 | > 100 | –
CC[C@H]1CN2CCc3cc(OC)c(OC)cc3C2C[C@@H]1CC1NCCc2cc(OC)c(OC)cc21 (stereo partly specified) | – | 0.292 | – | 0.292 | – | 3.75 | – | 0.0542 | 0.0204 | – | 0.313 | – | 0.197 | – | 0.128 | – | 0.258 | – | 0.017 | 0.144
CC1=Nc2ccccc2NC(c2ccoc2)C1 (stereo unspecified) | – | > 100 | – | > 100 | – | > 100 | – | > 100 | – | – | > 100 | – | > 100 | – | > 100 | – | > 100 | – | > 100 | > 100
C[C@]12CC[C@@H]3c4cc(OC(F)F)c(O)cc4CC[C@H]3[C@@H]1CC[C@@H]2OS(N)(=O)=O | 0.548 | > 70.2 | 2.77 | 98 | 0.598 | > 100 | 0.88 | 55.8 | 0.313 | 0.321 | 4.35 | 0.365 | 16.6 | 1.26 | > 100 | 16.7 | 79.6 | 1.1 | > 40 | 2.8
COC1=CC(c2ccc[nH]2)=N/C1=C\c1[nH]c(C)c(CC(=O)OCc2ccccc2)c1CCC(=O)OCc1ccccc1 | 0.343 | 2.21 | 0.523 | 3.11 | 0.309 | 2.01 | 0.281 | 0.758 | 0.49 | 0.288 | 2.42 | 0.363 | 1.46 | 0.376 | 1.53 | 0.721 | 3.1 | 0.26 | 1.2 | 2.66
C[C@]12CCc3nc(Nc4cccc(O)c4)sc3C1=CC[C@@H]1[C@@H]2CC[C@]2(C)/C(=N\NC(N)=S)CC[C@@H]12 | 1.64 | 3.26 | 3.21 | 22 | 0.765 | 6.9 | 2.32 | 7.36 | 2.53 | 3.01 | 15.5 | 1.4 | 2.87 | 1.44 | 4.31 | 2.12 | 6.4 | 1.91 | 3.61 | 8.31
O=C(C=C1SCCS1)/C=C\c1ccc(Cl)cc1 | – | > 100 | – | > 100 | – | > 100 | – | > 100 | – | – | > 100 | – | > 100 | – | > 100 | – | > 100 | – | > 100 | > 100
COc1ccc2sc3cccc(NCCN(C)C)c3c(=O)c2c1 | 3.72 | 15.5 | 4.26 | 15 | 2.5 | 6.01 | – | – | 2.16 | 1.2 | 9.38 | 4.65 | 16.5 | 3.14 | 14.5 | 1.78 | 3.32 | 1.75 | 3.42 | 4.74
CCOC(=O)c1ccc2c(c1)Cc1cc([N+](=O)[O-])ccc1-2 | – | > 100 | – | > 100 | – | 51.6 | – | – | – | – | > 100 | – | > 100 | – | > 100 | – | > 100 | – | 78.6 | > 100
Cc1ccc(S(=O)(=O)c2ccc(NC(=O)SCCC(=O)O)cc2)cc1 | – | > 100 | – | – | – | > 100 | – | > 100 | – | – | > 100 | – | > 100 | – | > 100 | – | > 100 | – | > 100 | > 100
C#CCNC(=O)N(CC#C)N=O | – | > 100 | – | > 100 | – | > 100 | – | > 100 | – | – | > 100 | – | > 100 | – | > 100 | – | > 100 | – | – | 63.4
CCCCCCCCOCC(O)COC(C)C (stereo unspecified) | – | > 100 | – | > 100 | – | 45 | – | – | – | – | > 100 | – | 32.9 | – | > 100 | – | 72.7 | – | > 100 | 31.7
COc1ccccc1NC(=O)C1=C(C)NC(C)=C(C(=O)Nc2ccccc2OC)C1C1=CC=COC1 | – | 56.8 | – | 71.2 | – | > 100 | – | – | – | – | 45.4 | – | 9.5 | – | > 100 | – | 68.3 | – | > 100 | 10.7

— PubChem BioAssay (NCI)
